This note sets out measurements from ChEMBL document CHEMBL5113438, “Discovery of highly potent and selective CRBN-recruiting EGFRL858R/T790M degraders in vivo” (Eur J Med Chem, 2022).

Broadly, the IC50 is the point on the concentration scale where inhibition reaches its midpoint. What is called EC50 is the concentration at which the effect is half-maximal.

The subject of series [1] is NCI-H1975. The series is described as follows: Antiproliferative activity against human NCI-H1975 cells expressing EGFR L858R/T790M incubated for 72 hrs by CCK-8 assay. The format is functional, cell-based. The settings on record: NCI-H1975, 72 h. (Tetrazolium dyes change colour on reduction, which living cells bring about.)
For series [2], the system named is NCI-H1299. Nature of the series: Antiproliferative activity against human NCI-H1299 cells expressing wild type EGFR incubated for 72 hrs by CCK-8 assay. The format is functional, cell-based. The conditions noted are these: NCI-H1299, 72 h.
For the next series, the system named is A549. Nature of the series: Antiproliferative activity against human A549 cells expressing wild type EGFR incubated for 72 hrs by CCK-8 assay. The format is functional, cell-based. The conditions noted are these: A549, 72 h.
The next series deals with HCC827. Nature of the series: Antiproliferative activity against human NCI-HCC827 cells expressing EGFR del19 incubated for 72 hrs by CCK-8 assay. The format is functional, cell-based. The settings on record: HCC827, 72 h.
Series [3] is described as follows: Selectivity ratio IC50 for human NCI-H1299 cells expressing wild type EGFR to human NCI-H1975 cells expressing EGFR L858R/T790M. Type of series: functional.
For series [4], the system named is BaF3. Nature of the series: Antiproliferative activity against mouse BaF3 harbouring EGFR L858R/T790M/L718Q mutant assessed as inhibition of cell growth incubated for 72 hrs by MTS assay. The format is functional, cell-based. The settings on record: BaF3, 72 h.
For series [5], the system named is BaF3. Nature of the series: Antiproliferative activity against mouse BaF3 harbouring EGFR L858R/T790M/C797S mutant assessed as inhibition of cell growth incubated for 72 hrs by MTS assay. The conditions noted are these: BaF3, 72 h. Type of series: functional, cell-based.
For series [6], the system named is BaF3. Nature of the series: Antiproliferative activity against mouse BaF3 harbouring EGFR L858R/T790M mutant assessed as inhibition of cell growth incubated for 72 hrs by MTS assay. Type of series: functional, cell-based. The settings on record: BaF3, 72 h.
In series [7] the target is von Hippel-Lindau disease tumor suppressor/Epidermal growth factor receptor (Homo sapiens, UniProt P00533+P40337, L858R/T790M). Nature of the series: Protac activity at VHL/EGFR L858R/T790M mutant in human NCI-H1975 cells assessed as induction of degradation of EGFR incubated for 24 hrs in presence of afatinib by immunoblot analysis. Type of series: cell-based. A general note: In western blotting, separated proteins are transferred to a membrane and probed.

Series [8] concerns NCI-H1975. The series is described as follows: Induction of apoptosis in human NCI-H1975 cells assessed as viable cells at 0.1 uM incubated for 48 hrs by AnnexinV-FITC/propidium iodide staining based flow cytometry analysis (reference value: 96.2 % ). The format is functional. The conditions noted are these: read-out: Activity. A general note: In flow cytometry, cells or beads pass a laser one at a time.

In series [9] the test system is NCI-H1975. Nature of the series: Induction of apoptosis in human NCI-H1975 cells assessed as late apoptotic cells at 0.1 uM incubated for 48 hrs by AnnexinV-FITC/propidium iodide staining based flow cytometry analysis (reference value: 1.35 % ). The format is functional.
Series [10] deals with NCI-H1299. The series is described as follows: Induction of apoptosis in human NCI-H1299 cells assessed as late apoptotic cells at 0.1 uM incubated for 48 hrs by AnnexinV-FITC/propidium iodide staining based flow cytometry analysis (reference value: 1.53 % ). Type of series: functional.
Series [11] is described as follows: Plasma protein binding in rat assessed as unbound fraction at 1 uM incubated for 4 hrs by rapid equilibrium dialysis method. Type of series: ADME, cell-free. The conditions noted are these: read-out: PPB (converted).
The subject of series [12] is NCI-H1975. The series is described as follows: Induction of apoptosis in human NCI-H1975 cells assessed as viable cells at 1.0 uM incubated for 48 hrs by AnnexinV-FITC/propidium iodide staining based flow cytometry analysis (reference value: 96.2 % ). The format is functional. The settings on record: read-out: Activity.
Series [13] has as its system NCI-H1299. The series is described as follows: Induction of apoptosis in human NCI-H1299 cells assessed as necrotic cells at 0.1 uM incubated for 48 hrs by AnnexinV-FITC/propidium iodide staining based flow cytometry analysis (reference value: 0.24 % ). Type of series: functional.
The test system of series [14] is NCI-H1299. Nature of the series: Induction of apoptosis in human NCI-H1299 cells assessed as viable cells at 0.1 uM incubated for 48 hrs by AnnexinV-FITC/propidium iodide staining based flow cytometry analysis (reference value: 98.05 % ). The format is functional. The settings on record: read-out: Activity.
Series [15] relates to NCI-H1299. The series is described as follows: Induction of apoptosis in human NCI-H1299 cells assessed as necrotic cells at 1.0 uM incubated for 48 hrs by AnnexinV-FITC/propidium iodide staining based flow cytometry analysis (reference value: 0.24 % ). The format is functional.
Series [16] has as its system NCI-H1299. Nature of the series: Induction of apoptosis in human NCI-H1299 cells assessed as early apoptotic cells at 1.0 uM incubated for 48 hrs by AnnexinV-FITC/propidium iodide staining based flow cytometry analysis (reference value: 0.11 % ). The format is functional.
For series [17], the system named is NCI-H1975. The series is described as follows: Induction of apoptosis in human NCI-H1975 cells assessed as necrotic cells at 1.0 uM incubated for 48 hrs by AnnexinV-FITC/propidium iodide staining based flow cytometry analysis (reference value: 3.28 % ). Type of series: functional.
In series [18] the test system is NCI-H1975. The series is described as follows: Induction of apoptosis in human NCI-H1975 cells assessed as necrotic cells at 0.1 uM incubated for 48 hrs by AnnexinV-FITC/propidium iodide staining based flow cytometry analysis (reference value: 3.28 % ). Type of series: functional.
Series [19] concerns NCI-H1299. Nature of the series: Induction of apoptosis in human NCI-H1299 cells assessed as viable cells at 1.0 uM incubated for 48 hrs by AnnexinV-FITC/propidium iodide staining based flow cytometry analysis (reference value: 98.05 % ). The format is functional. The settings on record: read-out: Activity.
Series [20] deals with NCI-H1299. The series is described as follows: Induction of apoptosis in human NCI-H1299 cells assessed as late apoptotic cells at 1.0 uM incubated for 48 hrs by AnnexinV-FITC/propidium iodide staining based flow cytometry analysis (reference value: 1.53 % ). The format is functional.
Series [21] relates to NCI-H1975. The series is described as follows: Induction of apoptosis in human NCI-H1975 cells assessed as early apoptotic cells at 1.0 uM incubated for 48 hrs by AnnexinV-FITC/propidium iodide staining based flow cytometry analysis (reference value: 0.11 % ). Type of series: functional.
For series [22], the system named is NCI-H1975. The series is described as follows: Induction of apoptosis in human NCI-H1975 cells assessed as late apoptotic cells at 1.0 uM incubated for 48 hrs by AnnexinV-FITC/propidium iodide staining based flow cytometry analysis (reference value: 1.35 % ). Type of series: functional.
For series [23], the system named is NCI-H1975. Nature of the series: Induction of apoptosis in human NCI-H1975 cells assessed as early apoptotic cells at 0.1 uM incubated for 48 hrs by AnnexinV-FITC/propidium iodide staining based flow cytometry analysis (reference value: 0.11 % ). The format is functional.
Series [24] relates to NCI-H1299. Nature of the series: Induction of apoptosis in human NCI-H1299 cells assessed as early apoptotic cells at 0.1 uM incubated for 48 hrs by AnnexinV-FITC/propidium iodide staining based flow cytometry analysis (reference value: 0.11 % ). The format is functional.

Chain of von Hippel-Lindau disease tumor suppressor/Epidermal growth factor receptor (P00533 25-1210 T790M/L858R limits assumed, stated change not applied): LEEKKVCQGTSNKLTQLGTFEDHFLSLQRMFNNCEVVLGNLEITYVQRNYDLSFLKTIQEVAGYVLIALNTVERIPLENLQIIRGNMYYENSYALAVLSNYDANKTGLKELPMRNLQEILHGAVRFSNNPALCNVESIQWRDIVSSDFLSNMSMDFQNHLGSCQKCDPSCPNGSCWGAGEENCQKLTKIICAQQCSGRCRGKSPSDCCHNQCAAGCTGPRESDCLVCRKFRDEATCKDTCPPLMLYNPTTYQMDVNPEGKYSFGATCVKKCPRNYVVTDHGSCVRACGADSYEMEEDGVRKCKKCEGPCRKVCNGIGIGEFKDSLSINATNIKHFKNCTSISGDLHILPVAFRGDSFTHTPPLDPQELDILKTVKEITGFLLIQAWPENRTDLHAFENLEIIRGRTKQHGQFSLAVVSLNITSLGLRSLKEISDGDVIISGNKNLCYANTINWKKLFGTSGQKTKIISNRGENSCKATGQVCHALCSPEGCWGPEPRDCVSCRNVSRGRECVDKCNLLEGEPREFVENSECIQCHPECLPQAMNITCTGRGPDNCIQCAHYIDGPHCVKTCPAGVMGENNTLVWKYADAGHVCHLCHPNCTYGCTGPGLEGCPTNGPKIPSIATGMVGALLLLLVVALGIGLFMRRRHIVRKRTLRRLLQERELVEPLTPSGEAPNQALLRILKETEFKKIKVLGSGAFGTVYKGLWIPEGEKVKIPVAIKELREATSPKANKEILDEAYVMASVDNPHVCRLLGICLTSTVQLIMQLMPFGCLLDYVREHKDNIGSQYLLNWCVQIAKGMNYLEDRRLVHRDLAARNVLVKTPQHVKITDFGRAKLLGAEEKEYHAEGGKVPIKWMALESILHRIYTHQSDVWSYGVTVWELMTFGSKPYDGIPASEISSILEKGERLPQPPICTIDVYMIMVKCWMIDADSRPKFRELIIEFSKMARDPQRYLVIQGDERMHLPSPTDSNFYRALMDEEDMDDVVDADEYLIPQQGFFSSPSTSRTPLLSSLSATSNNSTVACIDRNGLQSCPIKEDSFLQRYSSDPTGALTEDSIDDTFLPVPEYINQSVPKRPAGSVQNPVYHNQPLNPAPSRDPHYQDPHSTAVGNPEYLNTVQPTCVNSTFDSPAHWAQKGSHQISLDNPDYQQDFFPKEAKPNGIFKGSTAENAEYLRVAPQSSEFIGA
Chain of von Hippel-Lindau disease tumor suppressor/Epidermal growth factor receptor (P40337 whole entry, stated change not applied): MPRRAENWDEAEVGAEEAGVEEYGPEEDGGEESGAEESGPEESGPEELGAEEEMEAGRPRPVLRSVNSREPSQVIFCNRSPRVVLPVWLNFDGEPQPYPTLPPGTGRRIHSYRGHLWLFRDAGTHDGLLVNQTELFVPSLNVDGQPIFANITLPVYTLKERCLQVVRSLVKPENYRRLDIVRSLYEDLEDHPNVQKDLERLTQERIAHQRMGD

As to `C#CCN(CCCCCCC(=O)Nc1cccc2c1CN(C1CCC(=O)NC1=O)C2=O)CCN(C)c1cc(OC)c(Nc2nccc(-c3cn(C)c4ccccc34)n2)cc1NC(=O)C=C` (stereo unspecified), the IC50 in the series on NCI-H1975 [1] is 1.11 µM; with NCI-H1299 [2], greater than 100 µM; in the series on A549, greater than 100 µM; with HCC827 it was 0.358 µM. Besides, the “Ratio IC50” value in series [3] stood at 90.
In the case of `O=C1CCC(N2C(=O)c3cccc(NCCOCCOCCOCCN4CCN(c5ccc(-c6ccc7c(c6)C(=O)N(C(C(=O)Nc6nccs6)c6ccccc6)C7)cn5)CC4)c3C2=O)C(=O)N1` (stereo unspecified), the IC50 with BaF3 [4] was determined as 0.028 µM; with BaF3 [5], 0.041 µM; with BaF3 [6] it was 0.05 µM.
In the case of `C#CCN(CCCCC(=O)Nc1cccc2c1CN(C1CCC(=O)NC1=O)C2=O)CCN(C)c1cc(OC)c(Nc2nccc(-c3cn(C)c4ccccc34)n2)cc1NC(=O)C=C` (stereo unspecified), the half-maximal inhibitory concentration (IC50) in the series with NCI-H1975 [1] was 1.02 µM; in the series with NCI-H1299 [2] it was greater than 100 µM; with A549 it was greater than 100 µM; in the series with HCC827, 0.309 µM. Besides, the “Ratio IC50” value in [3] is recorded as 98.
As for `C#CCN(CCCCCCCCCC(=O)Nc1cccc2c1CN(C1CCC(=O)NC1=O)C2=O)CCN(C)c1cc(OC)c(Nc2nccc(-c3cn(C)c4ccccc34)n2)cc1NC(=O)C=C` (stereo unspecified), the IC50 in the series on NCI-H1975 [1] was 6.8 µM; in the series with NCI-H1299 [2] it was greater than 100 µM; in the series with A549, greater than 100 µM; with HCC827, 2.65 µM. In addition, the “Ratio IC50” value in series [3] was 14.
With `Cc1ccsc1-c1ccc(CNC(=O)[C@@H]2C[C@@H](O)CN2C(=O)[C@@H](NC(=O)CCCCCOCCCCOCCCCOc2cc3ncnc(Nc4ccc(F)c(Cl)c4)c3cc2NC(=O)/C=C/CN(C)C)C(C)(C)C)cc1`, the concentration for a half-maximal effect (EC50) in series [7] is 0.216 µM.
With `C#CCN(CCCCCCCC(=O)Nc1cccc2c1CN(C1CCC(=O)NC1=O)C2=O)CCN(C)c1cc(OC)c(Nc2nccc(-c3cn(C)c4ccccc34)n2)cc1NC(=O)C=C` (stereo unspecified), the concentration for half-maximal inhibition (IC50) with NCI-H1975 [1] is 1.36 µM; in the series on NCI-H1299 [2], greater than 100 µM; in the series with A549, greater than 100 µM; in the series with HCC827, 0.457 µM. Moreover, the “Ratio IC50” value in series [3] worked out at 74.
As to `C=CC(=O)Nc1cc(Nc2nccc(-c3cn(C)c4ccccc34)n2)c(OC)cc1N(C)CCN(C)C` [OSIMERTINIB], the concentration for half-maximal inhibition (IC50) with NCI-H1975 [1] stood at […]; with NCI-H1299 [2] it was 3.24 µM; with A549 it was 0.445 µM; with HCC827 it was 0.00248 µM. Further, the viability at 0.1 µM with NCI-H1975 [8] was 90.1%; in the series on NCI-H1299 [14], 98.2%. The Activity worked out at 3.83% in the series with NCI-H1975 [9]; […] in the series on NCI-H1299 [10]; 0.34% with NCI-H1299 [13]; 0.5% in the series on NCI-H1299 [15]; 0.075% in the series with NCI-H1299 [16]; 7.27% with NCI-H1975 [17]. Moreover, the Activity with NCI-H1975 [18] came out at 6.89%; with NCI-H1299 [20] it was 2.14%; in the series with NCI-H1975 [21], 1.7%; with NCI-H1975 [22], 34.7%; in the series with NCI-H1975 [23] it was […]; in the series with NCI-H1299 [24], 0.08%. In [3], the “Ratio IC50” value amounted to […]. Further, the fraction unbound at 4 h, 1 µM in [11] is 0.0133. For the same compound, the viability at 1 µM with NCI-H1975 [12] amounted to 56.4%; in the series with NCI-H1299 [19] it was 97.3%.
Consider `C#CCN(CCCCCC(=O)Nc1cccc2c1CN(C1CCC(=O)NC1=O)C2=O)CCN(C)c1cc(OC)c(Nc2nccc(-c3cn(C)c4ccccc34)n2)cc1NC(=O)C=C` (stereo unspecified), for which the IC50 with NCI-H1975 [1] was 3.56 µM; in the series with NCI-H1299 [2] it was greater than 100 µM; in the series on A549 it was greater than 100 µM; with HCC827, 0.649 µM. For the same compound, in [3], the “Ratio IC50” value was 28.
Regarding `C#CCN(CCCCCCCCC(=O)Nc1cccc2c1CN(C1CCC(=O)NC1=O)C2=O)CCN(C)c1cc(OC)c(Nc2nccc(-c3cn(C)c4ccccc34)n2)cc1NC(=O)C=C` (stereo unspecified), the 50% inhibitory concentration (IC50) is 3.23 µM in the series with NCI-H1975 [1], greater than 100 µM in the series on NCI-H1299 [2], greater than 100 µM in the series on A549 and 1.16 µM in the series on HCC827. The “Ratio IC50” value in series [3] is on record as 31.
